In ChEMBL document CHEMBL5104180, “Design, Synthesis, and Evaluation of New Sugar-Substituted Imidazole Derivatives as Selective c-MYC Transcription Repressors Targeting the Promoter G-Quadruplex” (J Med Chem, 2022):
Values belong to the compound of their own block, whether it stands above or below them. Activity calls are given as the source filed them. The rule behind the calls is not given here.

What was measured:
Quadruplex DNA [1] = assay: Stabilization of c-MYC G4 quadruplex DNA Pu22 (unknown origin) assessed as change in melting temperature at 2 uM by CD spectroscopy; assay type: nucleic-acid assay
Quadruplex DNA [2] = assay: Binding affinity to c-MYC G4- quadruplex DNA Pu22 (unknown origin) assessed as binding constant by SPR analysis; assay type: nucleic-acid assay
[3] = Binding affinity to G-rich KRAS DNA (unknown origin) assessed as binding constant by SPR analysis
[4] = Binding affinity to G-rich HRAS DNA (unknown origin) assessed as binding constant by SPR analysis
[5] = Binding affinity to G-rich NRAS RNA (unknown origin) assessed as binding constant by SPR analysis
[6] = Binding affinity to human G-rich Htg22 DNA assessed as binding constant by SPR analysis
[7] = Binding affinity to Hairpin DNA (unknown origin) assessed as binding constant by SPR analysis
Quadruplex DNA [8] = assay: Binding affinity to c-MYC G4 quadruplex DNA Pu22 (unknown origin) assessed as binding constant by SPR analysis; assay type: nucleic-acid assay
RNA = assay: Binding affinity to NRAS RNA mutant (unknown origin) assessed as binding constant by SPR analysis
HepG2 [9] = assay: Cytotoxicity against human HepG2 cells assessed as reduction in cell viability measured after 48 hrs by MTT assay; assay type: functional, cell-based; conditions: HepG2, 48 h
MDA-MB-231 [10] = assay: Cytotoxicity against human MDA-MB-231 cells assessed as reduction in cell viability measured after 48 hrs by MTT assay; assay type: functional, cell-based; conditions: MDA-MB-231, 48 h
[11] = Cytotoxicity against human HBL-100 cells assessed as reduction in cell viability measured after 48 hrs by MTT assay; assay type: toxicity, cell-based
[12] = tested on: NM23-H2/c-MYC G4 quadruplex DNA; assay: Disruption of NM23-H2/c-MYC G4 quadruplex DNA (unknown origin) interaction incubated for 1 hrs by ELISA; assay type: protein assay
[13] = tested on: BLM/c-MYC G4 quadruplex DNA; assay: Disruption of BLM/c-MYC G4 quadruplex DNA (unknown origin) interaction incubated for 1 hrs by ELISA; assay type: protein assay
[14] = tested on: DHX36/c-MYC G4 quadruplex DNA; assay: Disruption of DHX36/c-MYC G4 quadruplex DNA (unknown origin) interaction incubated for 1 hrs by ELISA; assay type: protein assay
Quadruplex DNA [15] = assay: Binding affinity to 5' FAM-labeled c-MYC G4 quadruplex DNA Pu22 (unknown origin) by fluorescence quench assay; assay type: nucleic-acid assay
Quadruplex DNA [16] = assay: Binding affinity to 3' FAM-labeled c-MYC G4 quadruplex DNA Pu22 (unknown origin) by fluorescence quench assay; assay type: nucleic-acid assay
MDA-MB-231 [17] = assay: Cytotoxicity against human MDA-MB-231 cells measured after 48 hrs; assay type: functional, cell-based
Quadruplex DNA [18] = assay: Inhibition of c-MYC G4 quadruplex DNA in HEK293T cells co-transfected with Renilla and firefly luciferase assessed as decrease in relative luciferase at 2.5 to 5 uM measured after 24 hrs by dual luciferase reporter assay; assay type: cell-based; conditions: Homo sapiens, dose 2.5-5 µM
Quadruplex DNA [19] = assay: Inhibition of c-MYC G4 quadruplex DNA in HEK293T cells co-transfected with Renilla and firefly luciferase assessed as decrease in relative luciferase measured after 24 hrs by dual luciferase reporter assay; assay type: cell-based; conditions: Homo sapiens
MDA-MB-231 [20] = assay: Cytotoxicity against human MDA-MB-231 cells assessed as reduction in cell viability measured after 24 hrs; assay type: functional, cell-based
MDA-MB-231 [21] = assay: Downregulation of c-MYC mRNA level in human MDA-MB-231 cells measured after 24 hrs by RT-PCR analysis; assay type: functional, cell-based
MDA-MB-231 [22] = assay: Downregulation of c-MYC expression in human MDA-MB-231 cells measured after 48 hrs by western blot analysis; assay type: functional, cell-based
[23] = tested on: NM23-H2/c-MYC G4 quadruplex DNA (Homo sapiens); assay: Disruption of NM23-H2/c-MYC G4 quadruplex DNA interaction in MDA-MB-231 cells; assay type: cell-based
Quadruplex DNA [24] = assay: Inhibition of c-MYC G4 quadruplex DNA in human MDA-MB-231 cells assessed as decrease in c-MYC immunoprecipitation at 1.25 to 5 uM measured after 24 hrs by chromatin immunoprecipitation assay; assay type: cell-based; conditions: dose 1.25-5 µM
MCF7 = assay: Cytotoxicity against human MCF7 cells measured after 48 hrs; assay type: functional, cell-based
HepG2 [25] = assay: Cytotoxicity against human HepG2 cells measured after 48 hrs; assay type: functional, cell-based
SiHa = assay: Cytotoxicity against human SiHa cells measured after 48 hrs; assay type: functional, cell-based
HBL-100 = assay: Cytotoxicity against human HBL-100 cells measured after 48 hrs; assay type: toxicity, cell-based; conditions: hbl-100, 48 h
NCM460 = assay: Cytotoxicity against human NCM460 cells measured after 48 hrs; assay type: toxicity, cell-based; conditions: ncm460, 48 h
MDA-MB-231 [26] = assay: Anticancer activity against human MDA-MB-231 cells (OFP negative) expressing c-MYC G4 quadruplex DNA assessed as arrest of growth measured after 48 hrs by DAPI staining based orange fluorescent protein assay; assay type: functional, cell-based
MDA-MB-231 [27] = assay: Inhibition of colony formation in human MDA-MB-231 cells at 0.125 to 5 uM assessed as reduction in colony formation incubated for 10 days and subsequent media replacement with compound for every 2 days by crystal violet staining based assay; assay type: functional, cell-based; conditions: dose 0.125-5 µM, time 10.0 day
MDA-MB-231 [28] = assay: Inhibition of colony formation in human MDA-MB-231 cells at 5 uM assessed as reduction in colony formation incubated for 10 days and subsequent media replacement with compound for every 2 days by crystal violet staining based assay; assay type: functional; conditions: MDA-MB-231, 240 h, time 10 day
MDA-MB-231 [29] = assay: Antitumor activity against human MDA-MB-231 cells assessed as reduction in cell invasion measured after 24 hrs using crystal violet staining inverted microscope based transwell assay; assay type: functional; conditions: MDA-MB-231, 24 h
MDA-MB-231 [30] = assay: Induction of cell cycle arrest in human MDA-MB-231 cells assessed as accumulation at sub G0 phase at 5 uM after 24 hrs by propidium iodide staining based flow cytometric analysis; assay type: functional
MDA-MB-231 [31] = assay: Induction of apoptosis in human MDA-MB-231 cells assessed as early apoptosis at 5 uM measured after 24 hrs by AnnexinV/propidium iodide staining based flow cytometry; assay type: functional, cell-based
MDA-MB-231 [32] = assay: Induction of apoptosis in human MDA-MB-231 cells assessed as necrosis at 5 uM measured after 24 hrs by AnnexinV/propidium iodide staining based flow cytometry; assay type: functional, cell-based
MDA-MB-231 [33] = assay: Antitumor activity against human MDA-MB-231 cells xenografted in BALB/c-nu/nu mouse assessed as relative increment ratio at 2.5 mg/kg, ip measured for 24 days; assay type: functional; conditions: time 24 day
MDA-MB-231 [34] = assay: Antitumor activity against human MDA-MB-231 cells xenografted in BALB/c-nu/nu mouse assessed as tumor growth inhibition at 2.5 mg/kg, ip measured for 24 days; assay type: functional; conditions: MDA-MB-231, 576 h, time 24 day, read-out: TGI
[35] = Toxicity in BALB/c-nu/nu mouse xenografted with human MDA-MB-231 cells assessed as change in body weight at 2.5 mg/kg, ip; assay type: organism-based; conditions: in vivo
[36] = Toxicity in BALB/c-nu/nu mouse xenografted with human MDA-MB-231 cells assessed as effect on anatomized heart viscera at 2.5 mg/kg, ip measured after 24 hrs; assay type: organism-based; conditions: in vivo
[37] = Toxicity in BALB/c-nu/nu mouse xenografted with human MDA-MB-231 cells assessed as effect on anatomized liver viscera at 2.5 mg/kg, ip measured after 24 hrs; assay type: organism-based; conditions: in vivo
[38] = Toxicity in BALB/c-nu/nu mouse xenografted with human MDA-MB-231 cells assessed as effect on anatomized spleen viscera at 2.5 mg/kg, ip measured after 24 hrs; assay type: organism-based; conditions: in vivo
[39] = Toxicity in BALB/c-nu/nu mouse xenografted with human MDA-MB-231 cells assessed as effect on anatomized lung viscera at 2.5 mg/kg, ip measured after 24 hrs; assay type: organism-based; conditions: in vivo
[40] = Toxicity in BALB/c-nu/nu mouse xenografted with human MDA-MB-231 cells assessed as effect on anatomized kidney viscera at 2.5 mg/kg, ip measured after 24 hrs; assay type: organism-based; conditions: in vivo
[41] = Toxicity in BALB/c-nu/nu mouse xenografted with human MDA-MB-231 cells assessed as side effects at 2.5 mg/kg, ip measured after 24 hrs; assay type: organism-based; conditions: in vivo
MDA-MB-231 [42] = assay: Antitumor activity against human MDA-MB-231 cells xenografted in BALB/c-nu/nu mouse assessed as decrease in c-MYC expression in tumor tissue; assay type: functional, cell-based
MDA-MB-231 [43] = assay: Induction of cell cycle arrest in human MDA-MB-231 cells assessed as decrease in accumulation at G2/M phase at 5 uM after 24 hrs by propidium iodide staining based flow cytometric analysis; assay type: functional
MDA-MB-231 [44] = assay: Antitumor activity against human MDA-MB-231 cells xenografted in BALB/c-nu/nu mouse assessed as relative increment ratio at 1 mg/kg, ip measured for 24 days; assay type: functional; conditions: time 24 day
MDA-MB-231 [45] = assay: Antitumor activity against human MDA-MB-231 cells xenografted in BALB/c-nu/nu mouse assessed as tumor growth inhibition at 1 mg/kg, ip measured for 24 days; assay type: functional; conditions: MDA-MB-231, 576 h, time 24 day, read-out: TGI

ΔTm (Quadruplex DNA [1]): 20.3 °C
Kd (Quadruplex DNA [2]): 3.8 µM
Kd [3]: 16.4 µM
Kd [4]: > 20 µM
Kd [5]: > 20 µM
Kd [6]: > 20 µM
Kd [7]: > 20 µM
Kd (Quadruplex DNA [8]): > 20 µM
Kd (RNA): > 20 µM
IC50 [12]: 0.16 µM
IC50 [13]: 2.3 µM
IC50 [14]: 7 µM
Kd (Quadruplex DNA [15]): 0.56 µM
Kd (Quadruplex DNA [16]): 2.94 µM
Activity [23]: Active
IC50 (MDA-MB-231 [29]): 7 µM
SMILES: CCn1c2ccccc2c2cc(-c3nc(-c4ccc(N5CCN(C)CC5)cc4)c(-c4ccc(N5CCN(C)CC5)cc4)n3-c3ccc(OCCOCCOC4(C)O[C@H]5O[C@H](CO)[C@@H](O)[C@H](O)[C@H]5O4)cc3)ccc21 (single isomer, unassigned)
IC50 (HepG2 [9]): 5 µM
IC50 (MDA-MB-231 [10]): 3.9 µM
IC50 at 48 h [11]: > 100 µM
Activity (MDA-MB-231 [17]): Active
inhibition (Quadruplex DNA [18]): Active
Activity (Quadruplex DNA [19]): Active
Activity (MDA-MB-231 [20]): Active
Activity (MDA-MB-231 [21]): Active
Activity (MDA-MB-231 [22]): Active
inhibition (Quadruplex DNA [24]): Active
Activity (MCF7): Active
Activity (HepG2 [25]): Active
Activity (SiHa): Active
Activity (HBL-100): Toxic
Activity (NCM460): Toxic
Activity (MDA-MB-231 [26]): Active
inhibition (MDA-MB-231 [27]): Active
inhibition at 5 µM (MDA-MB-231 [28]): 100%
inhibition at 5 µM (MDA-MB-231 [30]): 20%
Activity (MDA-MB-231 [31]): Active
Activity (MDA-MB-231 [32]): Active
Activity (MDA-MB-231 [33]): 89.9%
inhibition in vivo at 2.5 mg/kg (MDA-MB-231 [34]): 87.8%
Activity [35]: Non-Toxic
Activity [36]: Non-Toxic
Activity [37]: Non-Toxic
Activity [38]: Non-Toxic
Activity [39]: Non-Toxic
Activity [40]: Non-Toxic
Activity [41]: Non-Toxic
Activity (MDA-MB-231 [42]): Active
Activity (MDA-MB-231 [43]): Active

SMILES: COc1cccc2c1C(=O)c1c(O)c3c(c(O)c1C2=O)C[C@@](O)(C(=O)CO)C[C@@H]3O[C@H]1C[C@H](N)[C@H](O)[C@H](C)O1 [DOXORUBICIN]
Activity (MDA-MB-231 [44]): 85.4%
inhibition in vivo at 1 mg/kg (MDA-MB-231 [45]): 80.2%
